Reference: ChEMBL document CHEMBL5233233, “Histone deacetylase 3 (HDAC3) inhibitors as anticancer agents: A review” (Eur J Med Chem, 2020)

Experiments:
[1] = target: T1, Protein deacetylase HDAC6 (Homo sapiens, UniProt Q9UBN7); assay: Inhibition of human recombinant HDAC6 using Fluor-de-Lys as substrate at 50 uM for 30 mins by fluorescence based assay
T1 sequence (Q9UBN7 whole entry): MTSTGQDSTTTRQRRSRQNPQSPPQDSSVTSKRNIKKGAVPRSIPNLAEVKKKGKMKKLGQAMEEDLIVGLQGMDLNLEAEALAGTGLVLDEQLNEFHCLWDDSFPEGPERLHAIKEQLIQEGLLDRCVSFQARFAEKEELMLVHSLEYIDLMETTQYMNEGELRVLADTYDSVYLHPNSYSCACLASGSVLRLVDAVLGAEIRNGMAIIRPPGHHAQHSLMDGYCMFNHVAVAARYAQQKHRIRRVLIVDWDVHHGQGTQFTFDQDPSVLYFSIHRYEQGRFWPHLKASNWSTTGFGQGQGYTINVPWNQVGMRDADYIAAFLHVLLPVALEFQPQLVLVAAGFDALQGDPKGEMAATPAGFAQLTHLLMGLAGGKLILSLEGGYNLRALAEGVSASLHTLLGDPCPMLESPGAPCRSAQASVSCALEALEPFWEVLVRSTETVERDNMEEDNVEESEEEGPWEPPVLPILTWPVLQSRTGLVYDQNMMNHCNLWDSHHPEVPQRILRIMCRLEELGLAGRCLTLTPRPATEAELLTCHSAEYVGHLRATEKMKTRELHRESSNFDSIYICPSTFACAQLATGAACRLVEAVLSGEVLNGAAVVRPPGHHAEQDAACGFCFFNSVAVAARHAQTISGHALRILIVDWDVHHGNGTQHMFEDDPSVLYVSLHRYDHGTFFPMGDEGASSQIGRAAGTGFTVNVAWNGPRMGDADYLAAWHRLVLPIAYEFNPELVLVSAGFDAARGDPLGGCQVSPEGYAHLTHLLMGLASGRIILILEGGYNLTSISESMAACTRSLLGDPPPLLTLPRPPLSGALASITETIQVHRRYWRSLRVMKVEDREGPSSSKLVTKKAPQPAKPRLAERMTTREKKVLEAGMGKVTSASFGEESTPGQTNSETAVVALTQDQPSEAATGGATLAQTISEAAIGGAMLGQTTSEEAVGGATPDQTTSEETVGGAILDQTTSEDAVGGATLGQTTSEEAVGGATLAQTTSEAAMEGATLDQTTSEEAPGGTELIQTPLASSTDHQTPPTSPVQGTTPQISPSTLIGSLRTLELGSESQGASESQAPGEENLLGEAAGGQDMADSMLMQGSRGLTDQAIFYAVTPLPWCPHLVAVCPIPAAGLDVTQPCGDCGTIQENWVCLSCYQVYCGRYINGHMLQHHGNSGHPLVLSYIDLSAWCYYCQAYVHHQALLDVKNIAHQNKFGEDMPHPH

[2] = target: T2, Polyamine deacetylase HDAC10 (Homo sapiens, UniProt Q969S8); assay: Inhibition of human recombinant HDAC10 using Fluor-de-Lys as substrate at 50 uM for 30 mins by fluorescence based assay
T2 sequence (Q969S8 whole entry): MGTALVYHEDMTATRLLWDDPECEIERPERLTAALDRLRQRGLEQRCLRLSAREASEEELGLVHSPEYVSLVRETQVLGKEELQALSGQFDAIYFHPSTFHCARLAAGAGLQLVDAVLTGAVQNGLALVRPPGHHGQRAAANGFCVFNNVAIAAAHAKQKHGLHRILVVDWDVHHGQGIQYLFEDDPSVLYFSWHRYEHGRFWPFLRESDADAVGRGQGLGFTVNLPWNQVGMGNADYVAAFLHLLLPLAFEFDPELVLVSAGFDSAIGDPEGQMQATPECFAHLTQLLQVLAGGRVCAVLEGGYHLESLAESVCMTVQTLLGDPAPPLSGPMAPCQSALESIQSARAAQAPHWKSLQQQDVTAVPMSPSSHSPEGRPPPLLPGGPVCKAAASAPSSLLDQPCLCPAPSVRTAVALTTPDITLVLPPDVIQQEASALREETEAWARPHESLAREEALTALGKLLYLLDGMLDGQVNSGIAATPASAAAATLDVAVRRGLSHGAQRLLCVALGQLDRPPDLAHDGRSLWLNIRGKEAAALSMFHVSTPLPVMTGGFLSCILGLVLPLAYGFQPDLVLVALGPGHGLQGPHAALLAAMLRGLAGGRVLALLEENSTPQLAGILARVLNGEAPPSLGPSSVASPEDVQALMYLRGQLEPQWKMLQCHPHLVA

Histone deacetylase 2 [3] = target: T3, Histone deacetylase 2 (Homo sapiens, UniProt Q92769); assay: Inhibition of human recombinant HDAC2 using Fluor-de-Lys as substrate at 50 uM for 30 mins by fluorescence based assay
T3 sequence (Q92769 whole entry): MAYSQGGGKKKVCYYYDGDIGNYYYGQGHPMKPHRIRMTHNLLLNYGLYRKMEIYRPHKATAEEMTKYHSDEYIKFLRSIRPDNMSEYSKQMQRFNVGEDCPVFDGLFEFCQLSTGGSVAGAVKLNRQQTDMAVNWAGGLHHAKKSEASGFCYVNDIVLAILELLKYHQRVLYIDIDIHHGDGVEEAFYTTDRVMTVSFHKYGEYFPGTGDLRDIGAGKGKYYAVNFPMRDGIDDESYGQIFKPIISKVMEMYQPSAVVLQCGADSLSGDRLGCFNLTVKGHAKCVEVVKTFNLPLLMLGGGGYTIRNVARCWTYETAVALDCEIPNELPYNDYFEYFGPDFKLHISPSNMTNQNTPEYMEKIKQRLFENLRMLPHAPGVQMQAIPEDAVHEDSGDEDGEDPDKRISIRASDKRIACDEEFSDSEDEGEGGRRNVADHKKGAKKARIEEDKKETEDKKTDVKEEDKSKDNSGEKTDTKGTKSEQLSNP

Histone deacetylase 1 [4] = target: T4, Histone deacetylase 1 (Homo sapiens, UniProt Q13547); assay: Inhibition of human recombinant HDAC1 using Fluor-de-Lys as substrate at 50 uM for 30 mins by fluorescence based assay
T4 sequence (Q13547 whole entry): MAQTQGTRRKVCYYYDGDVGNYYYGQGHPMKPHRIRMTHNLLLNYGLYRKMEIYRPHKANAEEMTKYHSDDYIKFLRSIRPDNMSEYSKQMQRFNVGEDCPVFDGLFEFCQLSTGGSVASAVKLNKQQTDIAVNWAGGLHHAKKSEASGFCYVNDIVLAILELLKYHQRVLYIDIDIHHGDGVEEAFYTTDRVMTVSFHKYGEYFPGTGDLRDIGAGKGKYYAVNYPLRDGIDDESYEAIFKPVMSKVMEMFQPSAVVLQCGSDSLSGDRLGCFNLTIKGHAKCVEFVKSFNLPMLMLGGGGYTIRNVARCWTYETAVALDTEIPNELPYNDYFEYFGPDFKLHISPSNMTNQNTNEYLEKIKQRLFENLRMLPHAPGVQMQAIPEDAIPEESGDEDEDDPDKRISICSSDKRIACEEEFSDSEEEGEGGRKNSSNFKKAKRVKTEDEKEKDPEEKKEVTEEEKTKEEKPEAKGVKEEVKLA

Histone deacetylase 1 [5] = target: T4, Histone deacetylase 1; assay: Inhibition of human HDAC1 by fluorescence based assay method
PC-3 = assay: Anticancer activity against human PC-3 cells assessed as reduction in cell viability; assay type: functional, cell-based
Histone deacetylase 1 [6] = target: T4, Histone deacetylase 1; assay: Inhibition of human recombinant HDAC1 using fluorogenic HDAC substrate measured after 20 mins by fluorescence assay
Histone deacetylase 3 [7] = target: T5, Histone deacetylase 3 (Homo sapiens, UniProt O15379); assay: Inhibition of human HDAC3 using fluorogenic as substrate measured after 30 mins by fluorescence based analysis
T5 sequence (O15379 whole entry): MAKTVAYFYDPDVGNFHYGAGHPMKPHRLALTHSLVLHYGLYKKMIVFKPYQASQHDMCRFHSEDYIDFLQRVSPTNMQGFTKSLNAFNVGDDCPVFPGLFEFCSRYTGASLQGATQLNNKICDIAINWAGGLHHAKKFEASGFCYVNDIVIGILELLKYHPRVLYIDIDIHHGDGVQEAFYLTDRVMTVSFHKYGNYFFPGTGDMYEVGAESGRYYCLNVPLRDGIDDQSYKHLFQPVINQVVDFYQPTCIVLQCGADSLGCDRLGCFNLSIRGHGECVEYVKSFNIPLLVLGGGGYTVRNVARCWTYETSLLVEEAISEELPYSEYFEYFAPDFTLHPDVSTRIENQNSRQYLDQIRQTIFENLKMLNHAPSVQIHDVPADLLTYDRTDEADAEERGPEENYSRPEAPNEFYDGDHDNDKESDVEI

Histone deacetylase 2 [8] = target: T3, Histone deacetylase 2; assay: Inhibition of human recombinant HDAC2 using fluorogenic HDAC substrate measured after 20 mins by fluorescence assay
Histone deacetylase 3 [9] = target: T5, Histone deacetylase 3; assay: Inhibition of HDAC3 (unknown origin) at 5uM
Histone deacetylase 2 [10] = target: T3, Histone deacetylase 2; assay: Inhibition of recombinant HDAC2 (unknown origin) at 50 uM measured after 24 hrs by fluorometric based analysis
Histone deacetylase 1 [11] = target: T4, Histone deacetylase 1; assay: Inhibition of human recombinant HDAC1 at 50 uM measured after 24 hrs by fluorometric analysis
Histone deacetylase 3 [12] = target: T5, Histone deacetylase 3; assay: Inhibition of recombinant HDAC3 (unknown origin) measured after 24 hrs by fluorometric analysis
Histone deacetylase 3 [13] = target: T5, Histone deacetylase 3; assay: Inhibition of HDAC3 (unknown origin) at 10 uM

## Nc1ccccc1NC(=O)CCCCCCC(=O)NO
[1]
  IC50: 9.93 nM
[2]
  IC50: 49.3 nM
Histone deacetylase 2 [3]
  IC50: 101 nM
Histone deacetylase 1 [4]
  IC50: 67.2 nM

## Nc1ccccc1NC(=O)c1ccc(CNc2nc(-c3ccccc3)c(-c3ccccc3)o2)cc1
Histone deacetylase 1 [5]
  IC50: 6 nM

## COc1ccccc1NC(=O)N[C@H](C(=O)Nc1ccc(C(=O)NO)cc1)c1ccccc1
PC-3
  IC50: 1510 nM
Histone deacetylase 1 [6]
  IC50: 4.8 nM
Histone deacetylase 3 [7]
  IC50: 5.9 nM
Histone deacetylase 2 [8]
  IC50: 19.5 nM

## O=C(CCCCCCN1C=Cc2ccccc2C1)NO
Histone deacetylase 3 [9]
  IC50: 97 nM

## Nc1ccc(F)cc1NC(=O)c1cc2ccccc2o1
Histone deacetylase 2 [10]
  IC50: 1500 nM
Histone deacetylase 1 [11]
  IC50: 1200 nM
Histone deacetylase 3 [12]
  IC50: 80 nM

## COc1ccc(C(=O)N[C@@H](Cc2c[nH]c3ccccc23)C(=O)Nc2ccc(C(=O)Nc3ccc(-c4cccs4)cc3N)cc2)cc1
Histone deacetylase 3 [13]
  IC50: 62500 nM
